From patent US12686690B2, “Macrocyclic urea orexin receptor agonists” (Merck Sharp & Dohme LLC, priority 2020, dated 2026)

Biological target: T1, hOX2R (Homo sapiens, UniProt O43614)
T1 construct: expressed in transfected cells; host or cells: CHO cells (G418 selection)
T1 sequence (O43614 1-444): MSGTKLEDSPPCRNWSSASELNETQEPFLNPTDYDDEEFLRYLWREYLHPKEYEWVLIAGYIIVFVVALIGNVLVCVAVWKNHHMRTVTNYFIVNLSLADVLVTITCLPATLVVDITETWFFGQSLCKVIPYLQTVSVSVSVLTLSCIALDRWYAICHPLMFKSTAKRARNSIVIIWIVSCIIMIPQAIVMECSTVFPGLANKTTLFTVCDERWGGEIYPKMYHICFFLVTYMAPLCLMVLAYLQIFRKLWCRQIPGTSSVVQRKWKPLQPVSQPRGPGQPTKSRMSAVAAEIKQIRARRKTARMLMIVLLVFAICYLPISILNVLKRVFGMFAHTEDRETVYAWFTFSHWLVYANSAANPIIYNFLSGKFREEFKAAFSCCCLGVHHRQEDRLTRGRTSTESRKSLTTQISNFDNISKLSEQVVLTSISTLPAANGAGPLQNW
Experiment: hOX2R IPone assay (orexin receptor agonism)
Format: cell-based
Settings: IPone readout; for hOX2R_Ipone max %act: maximal activation; for EC50: orexin receptor agonist, read-out: hOX2R_IPone EC50

| Structure (SMILES) | hOX2R_Ipone max %act [%] | EC50 [nM] |
| --- | --- | --- |
| CCN1C(=O)N[C@@H](CCC(F)(F)F)CCCCCOc2nc(cn3ccnc23)-c2nc(co2)C1C (single isomer, unassigned) [Example 105A] | 73.0 | 1360 |
| CCN1C(=O)NC(C2CC2(F)F)CCCCCOc2nc(cn3ccnc23)-c2cc(ncc2OC)[C@H]1C (stereo partly drawn) [Example 192, (3R,E)-7-(2,2-difluorocyclopropyl)-4-ethyl-25-methoxy-3-methyl-13-oxa-4,6-diaza-1(6,8)-imidazo[1,2-a]pyrazina-2(4,2)-pyridinacyclotri-decaphan-5-one] | 100.9 | 0.46 |
| CCN1C(=O)NCCOCCCOc2nc(cn3ccnc23)-c2cc(ncc2OC)[C@H]1C [Example 8, (12R)-13-ethyl-8-methoxy-12-methyl-12,13,16,17,20,21-hexahydro-19H-6,23-(azeno)-11,7-(metheno)imidazo[1,2-o][1,18,4,6,9,15]dioxatetra-azacyclohenicosin-14(15H)-one] | 100.2 | 13.6 |
| CCN1C(=O)N[C@@H](CCC(F)(F)F)CCOCCOc2nc(cn3ncnc23)-c2cc(ncc2OC)[C@H]1C [Example 164, (3R,7S,E)-4-ethyl-25-methoxy-3-methyl-7-(3,3,3-trifluoropropyl)-10,13-dioxa-4,6-diaza-1(6,8)-[1,2,4]triazolo[1,5-a]pyrazina-2(4,2)-pyridinacyclotridecaphan-5-one] | 100.1 | 2.62 |
| CCN1C(=O)NC(CCC(F)F)CCCCCOc2nc(cn3ncnc23)-c2cc(ncc2C)[C@H]1C (stereo partly drawn) [Example 201, (3R,E)-7-(3,3-difluoropropyl)-4-ethyl-25,3-dimethyl-13-oxa-4,6-diaza-1(6,8)-[1,2,4]triazolo[1,5-a]pyrazina-2(4,2)-pyridina-cyclotridecaphan-5-one] | 101 | 3.68 |
| CCN1C(=O)N[C@@H](CCC(F)(F)F)CCCCCOc2nc(cn3ccnc23)-c2cc(ncn2)[C@H]1C [Example 112A, (12R,16R)-13-ethyl-12-methyl-16-(3,3,3-trifluoropropyl)-12,13,16,17,18,19,20,21-octahydro-6,23-(azeno)-11,7-(metheno)imidazo[2,1-c][1,4,8,10,13,15]oxapentaazacyclohenicosin-14(15H)-one] | 101.2 | 6.8 |
| CCN1C(=O)NCC(C(F)(F)F)N(C)CCOc2nc(cn3ccnc23)-c2cccc(c2)[C@H]1C (single isomer, unassigned) [Example 25B] | 97.81 | 173 |
| CCN1C(=O)NC(CCC(F)F)CCCCCOc2nc(nn3ccnc23)-c2cc(ncc2OC)[C@H]1C (stereo partly drawn) [Example 202, (3R,E)-7-(3,3-difluoropropyl)-4-ethyl-25-methoxy-3-methyl-13-oxa-4,6-diaza-1(2,4)-imidazo[2,1-f][1,2,4]triazina-2(4,2)-pyridina-cyclotridecaphan-5-one] | 99.8 | 1.7 |
| CCN1C(=O)NC(CC2CC2(F)F)CCCCCOc2nc(cn3ccnc23)-c2cc(ncc2OC)[C@H]1C (single isomer, unassigned) [Example 59A] | 101.6 | 4.1 |
| CCN1C(=O)NC(C)CCCCCOc2nc(cn3ccnc23)-c2cc(ncc2OC)[C@H]1C (single isomer, unassigned) [Example 9A] | 99.27 | 416 |
| CCN1C(=O)N[C@@H](CCC(F)(F)F)COCCCOc2nc(cn3ncnc23)-c2ccnc(c2F)[C@H]1C (single isomer, unassigned) [Example 175] | 93.8 | 9.06 |
| C[C@@H]1c2cc(ccn2)-c2cn3ccnc3c(n2)OCCCCC[C@H](CCC(F)(F)F)NC(=O)N1C [Example 158, (3R,7R,E)-3,4-dimethyl-7-(3,3,3-trifluoropropyl)-13-oxa-4,6-diaza-1(6,8)-imidazo[1,2-a]pyrazina-2(4,2)-pyridinacyclotridecaphan-5-one] | 102 | 3.87 |
| CCN1C(=O)N[C@@H](CCC(C)(F)F)CCOCCOc2nc(cn3ncnc23)-c2ccnc(c2)[C@H]1C [Example 180] | 100.8 | 4.15 |
| CCN1C(=O)NC(CCC(F)(F)F)COCCCOc2nc(cn3ccnc23)-c2cc(ncc2OC)[C@H]1C (single isomer, unassigned) [Example 21A] | 100.4 | 19.6 |
| CCN1C(=O)NC(C(C)(C)C)CCCCCOc2nc(cn3ccnc23)-c2cc(ncc2OC)[C@H]1C (single isomer, unassigned) [Example 63B] | 103.3 | 5.1 |
| CCN1C(=O)N[C@@H](CCC(F)(F)F)CCCCCOc2cc(cn3ccnc23)-c2cc(ncn2)C1C (single isomer, unassigned) [Example 96A] | 100.3 | 11.9 |
| CCN1C(=O)N[C@@H](CCC(F)(F)F)CCOCCOc2nc(cn3ccnc23)-c2cc(ccn2)[C@H]1C [Example 161, (3R,7S,E)-4-ethyl-3-methyl-7-(3,3,3-trifluoropropyl)-10,13-dioxa-4,6-diaza-1(6,8)-imidazo[1,2-a]pyrazina-2(2,4)-pyridinacyclotridecaphan-5-one] | 101.7 | 2.66 |
| CCN1C(=O)NC(CCOC)CCCCCOc2nc(cn3ccnc23)-c2cc(ncc2OC)[C@H]1C (single isomer, unassigned) [Example 56A] | 101.7 | 32 |
| CCN1C(=O)N[C@@H](CCC(C)(F)F)CCCCCOc2nc(c(C)n3ccnc23)-c2cc(ccn2)[C@H]1C [Example 160, (3R,7R,E)-7-(3,3-difluorobutyl)-4-ethyl-15,3-dimethyl-13-oxa-4,6-diaza-1(6,8)-imidazo[1,2-a]pyrazina-2(2,4)-pyridinacyclotridecaphan-5-one] | 101.4 | 0.77 |
| CCN1C(=O)N[C@@H](CCC(C)(F)F)CCCCCOc2nc(cn3ncnc23)-c2cc(cnc2C)[C@H]1C [Example 146, (3R,7R,E)-7-(3,3-difluorobutyl)-4-ethyl-22,3-dimethyl-13-oxa-4,6-diaza-1(6,8)-[1,2,4]triazolo[1,5-a]pyrazina-2(3,5)-pyridinacyclotridecaphan-5-one] | 100.8 | 14.7 |
| CCN1C(=O)N[C@@H](CCC(F)(F)F)CCCCCOc2nc(cn3ccnc23)-c2nc(ncc2C)[C@@H]1C [Example 93A, (12S,16R)-13-ethyl-8,12-dimethyl-16-(3,3,3-trifluoro-propyl)-12,13,16,17, 18,19,20,21-octa-hydro-6,23:11,7-di(azeno)imidazo[2,1-c][1,4,10,13,15]oxatet-raazacyclohenicosin-14(15H)-one] | 100.8 | 167 |
| CCN1C(=O)N[C@@H](C(F)(F)F)CCCCOc2nc(cn3ccnc23)-c2cc(ncc2OC)C1C(F)(F)F (single isomer, unassigned) [Example 39B] | 97.5 | 1060 |
| CCN1C(=O)NCCC2CCC(C2)Oc2nc(cn3ccnc23)-c2cccc(c2)[C@H]1C (single isomer, unassigned) [Example 1A] | 92.5 | 1050 |
| CCN1C(=O)NC(COCC(F)F)CCCCCOc2nc(cn3ccnc23)-c2cc(ncc2OC)[C@H]1C (mixture of isomers) [Example 190, (3R,E)-7-((2,2-difluoroethoxy)methyl)-4-ethyl-25-methoxy-3-methyl-13-oxa-4,6-diaza-1(6,8)-imidazo[1,2-a]pyrazina-2(4,2)-pyridinacyclotridecaphan-5-one] | 101.7 | 0.61 |
| CCN1C(=O)NC(CC2CCC2)CCCCCOc2nc(cn3ccnc23)-c2cc(ncc2OC)[C@H]1C (single isomer, unassigned) [Example 61B] | 100.9 | 1.3 |
| CCN1C(=O)N[C@@H](CCC(C)(F)F)CCOCCOc2nc(cn3ncnc23)-c2cc(cnc2OC)[C@H]1C [Example 148, (3R,7S,E)-7-(3,3-difluorobutyl)-4-ethyl-22-methoxy-3-methyl-10,13-dioxa-4,6-diaza-1(6,8)-[1,2,4]triazolo[1,5-a]pyrazina-2(3,5)-pyridinacyclotridecaphan-5-one] | 101.7 | 1.7 |
| CCN1Cc2cccc(c2)-c2cn3ccnc3c(n2)OCCCC[C@H](CCC(F)(F)F)NC1=O [Example 43, (16R)-13-ethyl-16-(3,3,3-trifluoropropyl)-12,13,15,16,17,18,19,20-octahydro-14H-6,22-(azeno)-11,7-(metheno)imidazo[2,1-c][1,4,13,15]oxatriaza-cycloicosin-14-one] | 97.6 | 49.9 |
| CCN1C(=O)NC(CC2CC(F)(F)C2)CCCCCOc2nc(cn3ccnc23)-c2cc(ncc2OC)[C@H]1C (single isomer, unassigned) [Example 69B] | 101.1 | 0.6 |
| CCN1C(=O)N[C@@H](CCC(F)(F)F)CCC(O)CCOc2nc(cn3ccnc23)-c2cc(cnc2C)[C@H]1C (single isomer, unassigned) [Example 137] | 100.7 | 4.66 |
| CCN1C(=O)N[C@@H](CCC(C)(F)F)CCOCCOc2nc(cc3c(C)cnn23)-c2cc(ncc2OC)[C@H]1C [Example 171, (3R,7S,E)-7-(3,3-difluorobutyl)-4-ethyl-25-methoxy-3-methyl-9,13-dioxa-4,6-diaza-1(5,7)-pyrazolo[1,5-c]pyrimidina-2(4,2)-pyridinacyclotridecaphan-5-one] | 107.9 | 1.45 |
